Source: patent US6953809B2, “Monocyte chemoattractant protein-1 inhibitor compounds” (Zeneca Limited, priority 1997, dated 2005)
pEC50, pIC50, pKd: −log10 of the molar value.

Tested on: THP-1 cells
Experiment: MCP-1 mediated calcium flux in THP-1 cells
Type: cell-based, human
Conditions: stimulation of THP-1 cells with hMCP-1; dose response curves; read-out: approximate EC50 for rise in [Ca2+]i
Description: b) MCP-1 Mediated Calcium Flux in THP-1 Cells
The human monocytic cell line THP-1 was grown in a synthetic cell culture medium RPMI 1640 supplemented with 10% foetal calf serum, 2 mM glutamine and Penicillin-Streptomycin (at 50 μg streptomycin/mil, Gibco BRL). THP-1 cells were washed in HBSS (lacking Ca^2+ and Mg^2+)+1 mg/ml BSA and resuspended in the same buffer at a density of 3×10^6 cells/ml. The cells were then loaded with […] FURA-2/AM for 30 min at 37° C., washed twice in HBSS, and resuspended at 1×10^6 cells/ml. […] The cuvette was placed in a fluorescence spectrophotometer (Perkin Elmer, Norwalk, Conn.) and preincubated for 4 min at 37° C. with stirring. Fluorescence was recorded over 70 sec and cells were stimulated by addition of hMCP-1 to the cuvette after 10 sec. [Ca^2+]i was measured by excitation at 340 nm and 380 nm alternately and subsequent measurement of the intensity of the fluorescence emission at 510 nm. […] Rmax is the maximal fluorescence ratio determined after addition of […] Ionomycin, Rmin is the minimal ratio determined by the subsequent addition of a Ca^2+ free solution containing 5 mM EGTA, and Sf2/Sb2 is the ratio of fluorescence values at 380 nm excitation determined at Rmin and Rmax, respectively. […]

Molecule | pEC50
MCP-1: human Monocyte Chemoattractant Protein-1, a C—C chemokine; natural ligand used to validate the assays | ~8.70

Tested on: THP-1 cells
Experiment: hMCP-1 mediated chemotaxis assay
Type: cell-based, human
Conditions: hMCP-1 induced concentration dependent cell migration
Description: c) hMCP-1 Mediated Chemotaxis Assay.
In vitro chemotaxis assays were performed using either the human monocytic cell line THP-1 or peripheral blood mixed monocytes obtained from fresh human blood purified by erythrocyte sedimentation followed by density gradient centrifugation over 9.6%(w/v) sodium metrizoate and 5.6%(w/v) polysaccharide, density 1.077 g/ml (Lymphoprep™ Nycomed). Cell migration through polycarbonate membranes was measured by enumerating those passing through either directly by Coulter counting or indirectly by use of a colourimetric viability assay measuring the cleavage of a tetrazolium salt by the mitochondrial respiratory chain (Scudiero D. A. et al. 1988, Cancer Res., 48, 48274833).
Chemoattractants were introduced into a 96-well microtiter plate which forms the lower well of a chemotaxis chamber fitted with a PVP-free 5 μm poresize polycarbonate adhesive framed filter membrane (NeuroProbe MB series, Cabin John, Md. 20818, USA) according to the manufacturer's instructions. The chemoattractant was diluted as appropriate in synthetic cell culture medium, RPMI 1640 (Gibco) supplemented with 2 mM glutamine and 0.5% BSA. […] The plate was incubated at 37° C. for 3 h and the absorbance of the soluble formazan product was read on a microtitre plate reader at 450 nm. […]

Molecule | concentration of maximal cell migration (biphasic response)
MCP-1: human Monocyte Chemoattractant Protein-1, a C—C chemokine; natural ligand used to validate the assays | 0.5-1.0 nm

Biological target: T1, MCP-1 receptor B (CCR2B) (Homo sapiens, UniProt P41597)
T1 construct: expressed in transfected cells; membrane fragments
T1 sequence (P41597 1-360 isoform P41597-2): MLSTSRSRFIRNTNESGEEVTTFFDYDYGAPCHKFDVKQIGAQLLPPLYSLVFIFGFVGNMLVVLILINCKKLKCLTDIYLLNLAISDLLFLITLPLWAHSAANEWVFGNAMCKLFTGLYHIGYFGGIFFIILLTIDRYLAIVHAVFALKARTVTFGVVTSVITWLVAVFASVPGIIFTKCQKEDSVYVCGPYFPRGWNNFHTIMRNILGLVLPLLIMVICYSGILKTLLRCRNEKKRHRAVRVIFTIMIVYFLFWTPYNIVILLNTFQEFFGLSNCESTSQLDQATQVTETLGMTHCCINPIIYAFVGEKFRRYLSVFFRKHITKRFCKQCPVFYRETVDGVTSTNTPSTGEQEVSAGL
Experiment: hMCP-1 receptor-binding assay (125I-MCP-1 competition on CHO-CCR2B cell membranes)
Conditions: competition with 100 pM labelled MCP-1; CHO-CCR2B cell membranes; read-out: IC50 in the hMCP-1 receptor binding assay
Text: a) hMCP-1 Receptor-Binding Assay i) Cloning and Expression of hMCP-1 Receptor
The MCP-1 receptor B (CCR2B) cDNA was cloned by PCR from THP-1 cell RNA using suitable oligonucleotide primers based on the published MCP-1 receptor sequences (Charo et al., 1994, Proc. Natl. Acad. Sci. USA, 91, 2752). The resulting PCR products were cloned into vector PCR-II™ (InVitrogen, San Diego, Calif.). Error free CCR2B cDNA was subcloned as a Hind III-Not I fragment into the eukaryotic expression vector pcDNA3 (InVitrogen) to generate pcDNA3/CC-CKR2A and pcDNA3/CCR2B respectively.
Linearised pcDNA3/CCR2B DNA was transfected into CHO-K1 cells by calcium phosphate precipitation (Wigler et al., 1979, Cell, 16, 777). Transfected cells were selected by the addition of Geneticin Sulphate (G418, Gibco BRL) at 1 mg/ml, 24 hours after the cells had been transfected. Preparation of RNA and Northern blotting were carried out as described previously (Needham et al., 1995, Prot. Express. Purific., 6, 134). CHO-K1 clone 7 (CHO-CCR2B) was identified as the highest MCP-1 receptor B expressor. […]
ii) Preparation of Membrane Fragments […]
^125I MCP-1 was prepared using Bolton and Hunter conjugation (Bolton et al., 1973, Biochem. J., 133, 529; Amersham International plc]. Equilibrium binding assays were carried out using the method of Ernst et al., 1994, J. Immunol., 152, 3541. Briefly, varying amounts of ^125I-labeled MCP-1 were added to […] of purified CHO-CCR2B cell membranes in […] of Binding Buffer. After 1 hour incubation at room temperature the binding reaction mixtures were filtered and washed 5 times through a plate washer (Packard Harvester Filtermate™ 196). Scintillation fluid (25 μl, Microscint™-20, a high efficiency liquid scintillation counting cocktail for aqueous samples) was added to each well and the plate was covered with plate sealer and counted (Packard Top Count™). […] Non-specific binding was determined by the inclusion of a 200-fold molar excess of unlabelled MCP-1 in the reaction. […]

Molecule | pIC50
COc1ccc(Cn2c(C(=O)O)cc3cc(F)ccc32)cc1 [Example 3.23, 5-Fluoro-N-(4-methoxybenzyl)indole-2-carboxylic acid] | 5.13

Same assay, conditions: membrane fragments from CHO-CCR2B cells; cold competition with 125I-labeled MCP-1; read-out: IC50 of MCP-1 binding to CCR2B

Molecule | pIC50
MCP-1: human Monocyte Chemoattractant Protein-1, a C—C chemokine; natural ligand used to validate the assays | 9.96

Same assay, conditions: membrane fragments from CHO-CCR2B cells; equilibrium binding

Molecule | pKd
MCP-1: human Monocyte Chemoattractant Protein-1, a C—C chemokine; natural ligand used to validate the assays | 9.92

Tested on: not given
Experiment: not given
Conditions: not given

Molecule | melting point
O=C(O)c1cc2ccccc2n1Cc1ccc(Cl)c(Cl)c1 | 198 °C
O=C(O)c1cc2cc(Br)ccc2n1Cc1ccc(Cl)c(Cl)c1 | 232 to 233 °C
O=C(O)c1cc2ccc(Cl)cc2n1Cc1ccc(Cl)c(Cl)c1 | 219 to 220 °C
COc1cccc2c1cc(C(=O)O)n2Cc1ccc(Cl)c(Cl)c1 | 220 to 221 °C
O=C(O)c1cc2ccc(C(F)(F)F)cc2n1Cc1ccc(Cl)c(Cl)c1 | 238 to 239 °C
COc1ccc2cc(C(=O)O)n(Cc3ccc(Cl)c(Cl)c3)c2c1 | 165 to 166 °C
CC(=O)c1c(C(=O)O)n(Cc2ccc(Cl)c(Cl)c2)c2ccccc12 | 163 to 164 °C
O=C(O)c1c([C@@H]2C[C@H]2C(=O)O)c2ccccc2n1Cc1ccc(Cl)c(Cl)c1 (relative stereo) [Example 3.58, N-(3,4-Dichlorobenzyl)-3-(trans-2-carboxy-cyclopropyl)indole-2-carboxylic acid] | 184 to 185 °C
CCOC(=O)c1cc2cc([N+](=O)[O-])ccc2n1Cc1ccc(Cl)c(Cl)c1 [Example 1.03, Ethyl N-(3,4-dichlorobenzyl)-5-nitroindole-2-carboxylate] | 133 to 140 °C
CCOC(=O)c1cc2cc(Br)ccc2n1Cc1ccc(Cl)c(Cl)c1 [Example 1.04, Ethyl 5-bromo-N-(3,4-dichlorobenzyl)indole-2-carboxylate] | 95 to 96 °C
O=C(O)c1cc2ccc([N+](=O)[O-])cc2n1Cc1ccc(Cl)c(Cl)c1 [Example 3.64, N-(3,4-Dichlorobenzyl)-6-nitroindole-2-carboxylic acid] | 256 to 257 °C
O=C(O)c1cc2c([N+](=O)[O-])cccc2n1Cc1ccc(Cl)c(Cl)c1 [Example 3.65, N-(3,4-Dichlorobenzyl)-4-nitroindole-2-carboxylic acid] | 296 to 297 °C
CC(=O)c1ccc2c(c1)cc(C(=O)O)n2Cc1ccc(Cl)c(Cl)c1 [Example 3.85, 5-Acetyl-N-(3,4-Dichlorobenzyl)indole-2-carboxylic acid] | 261 to 262 °C
CC(=O)Nc1ccc2c(c1)cc(C(=O)O)n2Cc1ccc(Cl)c(Cl)c1 [Example 4, N-(3,4-Dichlorobenzyl)-5-acetylaminoindole-2-carboxylic acid] | 245 to 246 °C
